Pest or weed control data for nine compounds are collected here from patent publication US10206394B2, “Herbicidal compounds” (Syngenta Participations AG, priority 2014, dated 2019).

Like-named read-outs stand apart in the source and are kept apart here.

Assay in all cases: Glasshouse assay for herbicidal activity (pre- and post-emergence), percentage phytotoxicity
What all share (format): in vivo

The test system of one assay is Avena fatua (AVEFA). Particulars: Avena fatua. The method in brief:
(§1)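 Visual phytotoxicity score, 0% = undamaged to 100% = total kill, read 20 days after treatment for PRE and 15 days for POST. Pots of standard soil; treatment at day 1 (PRE) or roughly day 12 (POST). Glasshouse: 16 h photoperiod, 65% RH, 24/18 or 20/16 °C by climate type.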

In assay [1] the test system is Echinochloa crus-galli (ECHCG). As to conditions: Echinochloa crus-galli. The method in brief:
as §1

The next assay relates to Lolium perenne (LOLPE). As to conditions: Lolium perenne. The method in brief:
as §1

Assay [2] relates to Alopecurus myosuroides (ALOMY). Particulars: Alopecurus myosuroides. The method in brief: as §1
[3] abbreviates: post-emergence, 360 h, POST-emergence, rate 250 g/ha, visual score 15 DAA (100%=total damage, 0%=no damage), read-out: Post-emergence herbicidal activity (percentage phytotoxicity) AVEFA POST.
Where [4] appears, read: pre-emergence, 480 h, PRE-emergence, rate 250 g/ha, visual score 20 DAA (100%=total damage, 0%=no damage), read-out: Pre-emergence herbicidal activity (percentage phytotoxicity) AVEFA PRE.
Setting [5] is: post-emergence, 360 h, POST-emergence, rate 250 g/ha, visual score 15 DAA (100%=total damage, 0%=no damage), read-out: Post-emergence herbicidal activity (percentage phytotoxicity) ECHCG POST.
The mark [6] stands for this setting: pre-emergence, 480 h, PRE-emergence, rate 250 g/ha, visual score 20 DAA (100%=total damage, 0%=no damage), read-out: Pre-emergence herbicidal activity (percentage phytotoxicity) ECHCG PRE.
[7] abbreviates: post-emergence, 360 h, POST-emergence, rate 250 g/ha, visual score 15 DAA (100%=total damage, 0%=no damage), read-out: Post-emergence herbicidal activity (percentage phytotoxicity) LOLPE POST.
The mark [8] stands for this setting: pre-emergence, 480 h, PRE-emergence, rate 250 g/ha, visual score 20 DAA (100%=total damage, 0%=no damage), read-out: Pre-emergence herbicidal activity (percentage phytotoxicity) LOLPE PRE.
Where [9] appears, read: post-emergence, 360 h, POST-emergence, rate 250 g/ha, visual score 15 DAA (100%=total damage, 0%=no damage), read-out: Post-emergence herbicidal activity (percentage phytotoxicity) ALOMY POST.
[10] abbreviates: pre-emergence, 480 h, PRE-emergence, rate 250 g/ha, visual score 20 DAA (100%=total damage, 0%=no damage), read-out: Pre-emergence herbicidal activity (percentage phytotoxicity) ALOMY PRE.
Setting [11] is: post-emergence, 360 h, Rate 250 g/ha, post-emergence, assessed visually 15 DAA, 100%=total damage, 0%=no damage, read-out: Post-emergence herbicidal activity (percentage phytotoxicity) AVEFA POST.
Setting [12] is: pre-emergence, 480 h, Rate 250 g/ha, pre-emergence, assessed visually 20 DAA, 100%=total damage, 0%=no damage, read-out: Pre-emergence herbicidal activity (percentage phytotoxicity) AVEFA PRE.
Setting [13] is: post-emergence, 360 h, Rate 250 g/ha, post-emergence, assessed visually 15 DAA, 100%=total damage, 0%=no damage, read-out: Post-emergence herbicidal activity (percentage phytotoxicity) ECHCG POST.
Setting [14] is: pre-emergence, 480 h, Rate 250 g/ha, pre-emergence, assessed visually 20 DAA, 100%=total damage, 0%=no damage, read-out: Pre-emergence herbicidal activity (percentage phytotoxicity) ECHCG PRE.
[15] abbreviates: post-emergence, 360 h, Rate 250 g/ha, post-emergence, assessed visually 15 DAA, 100%=total damage, 0%=no damage, read-out: Post-emergence herbicidal activity (percentage phytotoxicity) LOLPE POST.
Where [16] appears, read: pre-emergence, 480 h, Rate 250 g/ha, pre-emergence, assessed visually 20 DAA, 100%=total damage, 0%=no damage, read-out: Pre-emergence herbicidal activity (percentage phytotoxicity) LOLPE PRE.
[17] abbreviates: post-emergence, 360 h, Rate 250 g/ha, post-emergence, assessed visually 15 DAA, 100%=total damage, 0%=no damage, read-out: Post-emergence herbicidal activity (percentage phytotoxicity) ALOMY POST.
Setting [18] is: pre-emergence, 480 h, Rate 250 g/ha, pre-emergence, assessed visually 20 DAA, 100%=total damage, 0%=no damage, read-out: Pre-emergence herbicidal activity (percentage phytotoxicity) ALOMY PRE.

On to `C/C=C/c1cc(C)c(C2C(=O)CC(CC(=O)NCC3CC3)C2=O)c(CC)c1` (stereo not drawn) [Compound B196], for which the pest or weed control at 250 g/ha with Avena fatua (AVEFA) (setting [3]) was 100%; with Avena fatua (AVEFA) (setting [4]), 80%; in assay [1] (setting [5]), 100%; in assay [1] (setting [6]) it was 100%; in the assay on Lolium perenne (LOLPE) (setting [7]) it was 100%; in the assay on Lolium perenne (LOLPE) (setting [8]), 100%. For the same compound, the pest or weed control at 250 g/ha in assay [2] (setting [9]) and in assay [2] (setting [10]) was 100% each time.
Regarding `CCc1cc(OCC(F)(F)F)cc(C)c1C1C(=O)CC(CC(=O)N(C)C(C)(C)C)C1=O` (stereo not drawn) [Compound B221], the pest or weed control at 250 g/ha (with Avena fatua (AVEFA) (setting [3]); in the assay on Avena fatua (AVEFA) (setting [4]); in assay [1] (setting [5]); in assay [1] (setting [6]); in the assay with Lolium perenne (LOLPE) (setting [7]); in the assay with Lolium perenne (LOLPE) (setting [8])) was 100% in each case. Moreover, the pest or weed control at 250 g/ha in assay [2] (setting [9]) and in assay [2] (setting [10]) was 100% throughout.
Take `Cc1cc(OCC(F)(F)F)cc(C)c1C1C(=O)CC(CC(=O)N2CCOCC2)C1=O` (stereo not drawn) [Compound B146]: the pest or weed control at 250 g/ha is 90% in the assay on Avena fatua (AVEFA) (post-emergence, 360 h, 250 g/ha, post-emergence, 15 DAA, visual assessment (100%=total damage, 0%=no damage), read-out: Post-emergence herbicidal activity (percentage phytotoxicity) AVEFA POST); 50% with Avena fatua (AVEFA) (pre-emergence, 480 h, 250 g/ha, pre-emergence, 20 DAA, visual assessment (100%=total damage, 0%=no damage), read-out: Pre-emergence herbicidal activity (percentage phytotoxicity) AVEFA PRE); 100% in assay [1] (post-emergence, 360 h, 250 g/ha, post-emergence, 15 DAA, visual assessment (100%=total damage, 0%=no damage), read-out: Post-emergence herbicidal activity (percentage phytotoxicity) ECHCG POST); 100% in assay [1] (pre-emergence, 480 h, 250 g/ha, pre-emergence, 20 DAA, visual assessment (100%=total damage, 0%=no damage), read-out: Pre-emergence herbicidal activity (percentage phytotoxicity) ECHCG PRE); 90% in the assay on Lolium perenne (LOLPE) (post-emergence, 360 h, 250 g/ha, post-emergence, 15 DAA, visual assessment (100%=total damage, 0%=no damage), read-out: Post-emergence herbicidal activity (percentage phytotoxicity) LOLPE POST); 90% with Lolium perenne (LOLPE) (pre-emergence, 480 h, 250 g/ha, pre-emergence, 20 DAA, visual assessment (100%=total damage, 0%=no damage), read-out: Pre-emergence herbicidal activity (percentage phytotoxicity) LOLPE PRE). For the same compound, the pest or weed control at 250 g/ha in assay [2] (post-emergence, 360 h, 250 g/ha, post-emergence, 15 DAA, visual assessment (100%=total damage, 0%=no damage), read-out: Post-emergence herbicidal activity (percentage phytotoxicity) ALOMY POST) was 80%; in assay [2] (pre-emergence, 480 h, 250 g/ha, pre-emergence, 20 DAA, visual assessment (100%=total damage, 0%=no damage), read-out: Pre-emergence herbicidal activity (percentage phytotoxicity) ALOMY PRE), 90%.
As for `Cc1cc(C)c(C2C(=O)CC(CC(=O)NCc3ccccc3F)C2=O)c(C)c1` (stereo not drawn) [Compound A110], the pest or weed control at 250 g/ha worked out at 70% in the assay on Avena fatua (AVEFA) (setting [11]); 50% in the assay with Avena fatua (AVEFA) (setting [12]); 80% in assay [1] (setting [13]); 90% in assay [1] (setting [14]); 80% in the assay with Lolium perenne (LOLPE) (setting [15]); 100% with Lolium perenne (LOLPE) (setting [16]). The pest or weed control at 250 g/ha in assay [2] (setting [17]) came out at 60%; in assay [2] (setting [18]), 70%.
`COCCCNC(=O)CC1CC(=O)C(c2c(C)cc(-n3cc(Cl)cn3)cc2C)C1=O` (stereo not drawn) [Compound B310]: the pest or weed control at 250 g/ha in the assay with Avena fatua (AVEFA) (setting [3]) turned out to be 100%; in the assay on Avena fatua (AVEFA) (setting [4]), 80%; in assay [1] (setting [5]), 100%; in assay [1] (setting [6]) it was 90%; with Lolium perenne (LOLPE) (setting [7]) it was 70%; in the assay with Lolium perenne (LOLPE) (setting [8]), 90%. Besides, the pest or weed control at 250 g/ha in assay [2] (setting [9]) and in assay [2] (setting [10]) was 90% each time.
For `COCC(C)(C)NC(=O)CC1CC(=O)C(c2c(C)cc(-c3ccc(F)cn3)cc2C)C1=O` (stereo not drawn) [Compound B389], the pest or weed control at 250 g/ha in the assay with Avena fatua (AVEFA) (post-emergence, 360 h, Rate 250 g/ha, post-emergence, visual assessment 15 DAA, 100%=total damage, 0%=no damage, read-out: Post-emergence herbicidal activity (percentage phytotoxicity) AVEFA POST) is 100%; in the assay with Avena fatua (AVEFA) (pre-emergence, 480 h, Rate 250 g/ha, pre-emergence, visual assessment 20 DAA, 100%=total damage, 0%=no damage, read-out: Pre-emergence herbicidal activity (percentage phytotoxicity) AVEFA PRE) it was 90%; in assay [1] (post-emergence, 360 h, Rate 250 g/ha, post-emergence, visual assessment 15 DAA, 100%=total damage, 0%=no damage, read-out: Post-emergence herbicidal activity (percentage phytotoxicity) ECHCG POST), 100%; in assay [1] (pre-emergence, 480 h, Rate 250 g/ha, pre-emergence, visual assessment 20 DAA, 100%=total damage, 0%=no damage, read-out: Pre-emergence herbicidal activity (percentage phytotoxicity) ECHCG PRE) it was 100%; with Lolium perenne (LOLPE) (post-emergence, 360 h, Rate 250 g/ha, post-emergence, visual assessment 15 DAA, 100%=total damage, 0%=no damage, read-out: Post-emergence herbicidal activity (percentage phytotoxicity) LOLPE POST) it was 90%; in the assay on Lolium perenne (LOLPE) (pre-emergence, 480 h, Rate 250 g/ha, pre-emergence, visual assessment 20 DAA, 100%=total damage, 0%=no damage, read-out: Pre-emergence herbicidal activity (percentage phytotoxicity) LOLPE PRE) it was 100%. In addition, the pest or weed control at 250 g/ha in assay [2] (post-emergence, 360 h, Rate 250 g/ha, post-emergence, visual assessment 15 DAA, 100%=total damage, 0%=no damage, read-out: Post-emergence herbicidal activity (percentage phytotoxicity) ALOMY POST) stood at 100%; in assay [2] (pre-emergence, 480 h, Rate 250 g/ha, pre-emergence, visual assessment 20 DAA, 100%=total damage, 0%=no damage, read-out: Pre-emergence herbicidal activity (percentage phytotoxicity) ALOMY PRE), 90%.
As to `COCC(C)(C)NC(=O)CC1CC(=O)C(c2c(C)cc(-c3ncc(F)cc3F)cc2C)C1=O` (stereo not drawn) [Compound B329], the pest or weed control at 250 g/ha in the assay on Avena fatua (AVEFA) (setting [3]) is 100%; in the assay with Avena fatua (AVEFA) (setting [4]) it was 80%; in assay [1] (setting [5]), 100%; in assay [1] (setting [6]), 100%; with Lolium perenne (LOLPE) (setting [7]), 100%; with Lolium perenne (LOLPE) (setting [8]) it was 100%. Also, the pest or weed control at 250 g/ha in assay [2] (setting [9]) and in assay [2] (setting [10]) was 100% each time.
Turning to `CC#Cc1cc(C)c(C2C(=O)CC(CC(=O)NC(C)C)C2=O)c(C)c1` (stereo not drawn) [Compound A8, 2-[3-(2,6-dimethyl-4-prop-1-ynyl-phenyl)-2,4-dioxo-cyclopentyl]-N-isopropyl-acetamide], the pest or weed control at 250 g/ha (in the assay on Avena fatua (AVEFA) (setting [11]); in the assay on Avena fatua (AVEFA) (setting [12]); in assay [1] (setting [13]); in assay [1] (setting [14]); in the assay on Lolium perenne (LOLPE) (setting [15]); in the assay with Lolium perenne (LOLPE) (setting [16])) was 100% throughout. Further, the pest or weed control at 250 g/ha in assay [2] (setting [17]) and in assay [2] (setting [18]) was 100% throughout.
As for `CC#Cc1cc(C)c(C2C(=O)CC(CC(=O)NCc3cccc(F)c3)C2=O)c(C)c1` (stereo not drawn) [Compound B183], the pest or weed control at 250 g/ha with Avena fatua (AVEFA) (setting [3]) was found to be 100%; in the assay on Avena fatua (AVEFA) (setting [4]) it was 90%; in assay [1] (setting [5]), 100%; in assay [1] (setting [6]) it was 100%; in the assay on Lolium perenne (LOLPE) (setting [7]), 90%; in the assay with Lolium perenne (LOLPE) (setting [8]) it was 100%. Moreover, the pest or weed control at 250 g/ha in assay [2] (setting [9]) and in assay [2] (setting [10]) was 100% throughout.
